The target of one assay is PDK1 (Homo sapiens (Human), UniProt O15530). Description: PDK1 kinase assay (coupled PDK1/AKT/FAM-crosstide assay, IMAP fluorescence polarization). Format: biochemical. In outline: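 GST-tagged PDK1 (aa 51-359, 0.75 nM) was coupled to unphosphorylated GST-AKT2 140-467-PIFtide (10 nM) and 100 nM FAM-crosstide at 40 μM ATP, in Tris pH 7.2 buffer, for 30 min at 25 °C. Crosstide phosphorylation was read by IMAP fluorescence polarization (ΔmP) and fitted with a 4-parameter curve.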

Assay [1] relates to phospho-akt (Thr308) in PC-3 cells. Description: Inhibition of phospho-akt (Thr308) in PC-3 cells, MSD phospho-akt 308 ELISA kit. Conditions: Homo sapiens, 2 hours, no serum, read-out: EC50. It counts as cell-based. In outline:
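PC-3 cells (15,000/well, overnight in 10% FBS medium) treated 2 h with three-fold diluted compounds in serum-free medium; DMSO high and 5 μM wortmannin low controls. Lysates captured on BSA-blocked MSD plates overnight at 4 °C, then 1 h antibody detection at RT; phospho-Akt Thr308 read by MSD electrochemiluminescence.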

Setting [2] is: inhibition of phospo-PDK1 in vitro.
Where [3] appears, read: inhibition of P308 Akt in PC-3 cells, MSD.
Setting [4] is: inhibition of P308 Akt in PC-3 cells using MSD.
Setting [5] is: PC-3, 2 h, inhibition of P308 Akt in PC-3 cells, MSD.

This is an account of results in patent publication US10030016B2 (Sunesis Pharmaceuticals, Inc., priority 2009, dated 2018).

Structures are written as SMILES. Counter-ions that a name gives are not always drawn. Like-named read-outs stand apart in the source and are kept apart here.

PDK1, sequence (O15530 51-359): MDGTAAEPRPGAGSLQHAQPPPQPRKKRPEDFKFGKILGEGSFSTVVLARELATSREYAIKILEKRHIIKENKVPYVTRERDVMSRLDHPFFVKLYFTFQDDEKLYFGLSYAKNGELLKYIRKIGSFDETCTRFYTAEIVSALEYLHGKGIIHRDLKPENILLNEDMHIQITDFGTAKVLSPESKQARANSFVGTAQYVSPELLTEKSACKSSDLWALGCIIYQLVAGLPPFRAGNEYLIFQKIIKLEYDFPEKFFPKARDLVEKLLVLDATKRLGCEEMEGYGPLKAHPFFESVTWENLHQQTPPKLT

`CC(C)Oc1cc(CNc2ncccc2C(=O)N(C)c2cccc(F)c2)cc(-c2c[nH]c3ncc(C(=O)NC4CC4)cc23)c1` [Example 4.1.8, N-cyclopropyl-3-{3-[({3-[(3-fluorophenyl)(methyl)carbamoyl]pyridin-2-yl}amino)methyl]-5-(propan-2-yloxy)phenyl}-1H-pyrrolo[2,3-b] pyridine-5-carboxamide]: the 50% inhibitory concentration (IC50) against PDK1 (setting [2]) was greater than 5 µM. Further, the EC50 in assay [1] (setting [3]) lay within 1 to 10 µM.
Consider `N#Cc1cccc(NC(=O)c2cc(C(F)(F)F)cnc2NCc2ccc(-c3cnc4[nH]nc(N)c4c3)cc2)c1` [Example 439, 2-(4-(3-amino-1H-pyrazolo[3,4-b]pyridin-5-yl)benzylamino)-N-(3-cyanophenyl)-5-(trifluoromethyl) nicotinamide], for which the IC50 on PDK1 (inhibition of PDK1 in vitro) is less than 0.1 µM. Further, the EC50 in assay [1] (setting [4]) fell in the range of 1 to 10 µM.
Regarding `C[C@H](NC(=O)c1cn(-c2ccccc2)nc1NCc1ccc(-c2ccc3ncnc(N)c3c2)s1)c1ccc(F)c(F)c1` [Ex. 11.2], at PDK1 (setting [2]), the IC50 was 0.1 to 1 µM. Further, the EC50 in assay [1] (setting [3]) is greater than 10 µM.
The molecule `Nc1ncnc2ccc(-c3ccc(CNc4ncccc4C(=O)NCc4cccc(Cl)c4)s3)cc12` [Example 3.27, 2-({[5-(4-aminoquinazolin-6-yl)thiophen-2-yl]methyl}amino)-N-(3-chlorobenzyl) pyridine-3-carboxamide (TFA salt)] returned an IC50 on PDK1 (setting [2]) of 0.1 to 1 µM. In addition, the EC50 in assay [1] (setting [5]) is greater than 10 µM.
Consider `Nc1ncnc2c1c(-c1ccc(CNc3ncc(C(F)(F)F)cc3C(=O)Nc3ccc(F)cc3)cc1)cn2CCO` [Example 324, 2-(4-(4-amino-7-(2-hydroxyethyl)-7H-pyrrolo [2,3-d]pyrimidin-5-yl)benzylamino)-N-(4-fluorophenyl)-5-(trifluoromethyl)nicotinamide], for which, on PDK1 (inhibition of PDK1 in vitro), the 50% inhibitory concentration (IC50) is less than 0.1 µM. For the same molecule, the EC50 in assay [1] (setting [4]) was less than 1 µM.
Take `Cc1[nH]c(/C=C2\C(=O)Nc3cc(/C=C/CNc4ncccc4C(=O)NCc4ccc(F)c(F)c4)ccc32)c(C)c1C(=O)O` [Example 15.6]: the IC50 at PDK1 (setting [2]) is greater than 5 µM. Besides, the concentration giving a half-maximal response (EC50) in assay [1] (setting [3]) was less than 1 µM.
Regarding `Nc1cnc(-c2ccc(CNc3ncc(C(F)(F)F)cc3C(=O)Nc3ccc(F)cc3)cn2)cn1` [Example 325], the IC50 at PDK1 (inhibition of PDK1 in vitro) is 0.1 to 1 µM. In assay [1] (PC-3, 2 h, inhibition of P308 Akt in PC-3 cells using MSD), the half-maximal effective concentration (EC50) was in the range of 1 to 10 µM.
`C[C@H](NC(=O)c1cc(C#N)cnc1NCc1ccc(-c2cnc(N)c(C(=O)O)c2)cc1)c1ccc(F)cc1` [Example 148, (S)-2-amino-5-(4-((5-cyano-3-(1-(4-fluorophenyl)ethylcarbamoyl)pyridin-2-ylamino)methyl)phenyl) nicotinic acid] displayed an IC50 at PDK1 (inhibition of PDK1 in vitro) of less than 0.1 µM. Moreover, in assay [1] (setting [4]), the EC50 is greater than 10 µM.
Turning to `Nc1ncnc2ccc(-c3ccc(CNc4nc5ccccc5cc4C(=O)NCc4ccc(F)c(F)c4)s3)cc12` [Ex. 8.14.1, 2-({[5-(4-aminoquinazolin-6-yl)thiophen-2-yl]methyl}amino)-N-(3,4-difluorobenzyl) quinoline-3-carboxamide], on PDK1 (setting [2]), the IC50 is less than 0.1 µM. Further, the concentration for a half-maximal effect (EC50) in assay [1] (setting [3]) is less than 1 µM.
On to `Nc1ncnc2ccc(-c3ccc(CNc4ncccc4C(=O)NCc4cncnc4)s3)cc12` [Example 3.57, 2-({[5-(4-aminoquinazolin-6-yl)thiophen-2-yl]methyl}amino)-N-(pyrimidin-5-ylmethyl) pyridine-3-carboxamide (TFA salt)], for which the IC50 at PDK1 (setting [2]) lay within 1 to 5 µM. Moreover, in assay [1] (setting [3]), the EC50 fell in the range of 1 to 10 µM.
In turn, `Cc1ncc(CNC(=O)c2cccnc2NCc2ccc(-c3ccc4ncnc(N)c4c3)s2)cc1F` [Example 3.67, 2-(((5-(4-aminoquinazolin-6-yl)thiophen-2-yl)methyl)amino)-N-((5-fluoro-6-methylpyridin-3-yl)methyl)nicotinamide (TFA salt)] had an IC50 at PDK1 (setting [2]) of 1 to 5 µM. Also, in assay [1] (setting [5]), the EC50 is greater than 10 µM.
Molecule `CCOc1cnc(NCc2ccc(-c3ccc4ncnc(N)c4c3)s2)c(C(=O)NCc2ccc(F)c(F)c2)c1` [Example 8.1.3, 2-({[5-(4-aminoquinazolin-6-yl)thiophen-2-yl]methyl}amino)-N-(3,4-difluorobenzyl)-5-ethoxypyridine-3-carboxamide] gave an IC50 at PDK1 (setting [2]) greater than 5 µM. Also, in assay [1] (setting [3]), the EC50 is greater than 10 µM.
In turn, `C[C@H](NC(=O)c1cc(C#N)cnc1NCc1ccc(-c2cnc(NCCCN(C)C)cn2)cc1)c1ccc(F)cc1` [Example 225, 5-Cyano-2-{4-[5-(3-dimethylamino-propylamino)-pyrazin-2-yl]-benzylamino}-N-[(S)-1-(4-fluoro-phenyl)-ethyl]-nicotinamide] showed an IC50 against PDK1 (inhibition of PDK1 in vitro) greater than 5 µM. For the same molecule, the EC50 in assay [1] (setting [4]) is greater than 10 µM.
The corresponding values for `Nc1ncnc2c1c(-c1ccc(CNc3ncc(C(F)(F)F)cc3C(=O)Nc3ccc(F)cc3)cc1)cn2CCCCO` [Example 404, 2-(4-(4-amino-7-(4-hydroxybutyl)-7H-pyrrolo [2,3-d]pyrimidin-5-yl)benzylamino)-N-(4-fluorophenyl)-5-(trifluoromethyl)nicotinamide] are less than 0.1 µM and 1 to 10 µM.
The corresponding values for `Nc1cnc(-c2ccc(CNc3ncc(C(F)(F)F)cc3C(=O)Nc3ccc(F)cc3)cc2)cn1` [Example 155, 2-(4-(5-aminopyrazin-2-yl)benzylamino)-N-(4-fluorophenyl)-5-(trifluoromethyl)nicotinamide] are less than 0.1 µM and less than 1 µM.
The corresponding values for `C[C@H](NC(=O)c1cc(C#N)cnc1NCc1ccc(-c2cnc(N)c(OC(F)F)c2)cc1)c1ccc(F)cc1` [Example 134, (S)-2-(4-(6-amino-5-(difluoromethoxy)pyridin-3-yl)benzylamino)-5-cyano-N-(1-(4-fluorophenyl)ethyl)nicotinamide] are less than 0.1 µM and less than 1 µM.
For the molecule `Nc1n[nH]c2ncc(-c3ccc(CNc4ncc(C(F)(F)F)cc4C(=O)Nc4c(F)cc(F)cc4F)cc3)cc12` [Example 278, 2-(4-(3-amino-1H-pyrazolo [3,4-b]pyridin-5-yl)benzylamino)-5-(trifluoromethyl)-N-(2,4,6-trifluorophenyl)nicotinamide], the 50% inhibitory concentration (IC50) against PDK1 (inhibition of PDK1 in vitro) is less than 0.1 µM. In addition, in assay [1] (setting [4]), the concentration for a half-maximal effect (EC50) was less than 1 µM.
Turning to `Nc1n[nH]c2ncc(-c3ccc(CNc4ncc(C(F)(F)F)cc4C(=O)NC4CCOC4)cc3)cc12` (stereo not shown) [Example 305, 2-(4-(3-amino-1H-pyrazolo [3,4-b]pyridin-5-yl)benzylamino)-N-(tetrahydrofuran-3-yl)-5-(trifluoromethyl)nicotinamide], the half-inhibitory concentration (IC50) on PDK1 (inhibition of PDK1 in vitro) was in the range of 0.1 to 1 µM. Also, the EC50 in assay [1] (setting [4]) is 1 to 10 µM.
As for `O=C(Nc1ccc(F)cc1)c1cc(C(F)(F)F)cnc1NCc1ccc(-c2cnc3[nH]ncc3c2)cc1` [Example 156, 2-(4-(1H-pyrazolo[3,4-b]pyridin-5-yl)benzylamino)-N-(4-fluorophenyl)-5-(trifluoromethyl)nicotinamide], at PDK1 (inhibition of PDK1 in vitro), the IC50 was less than 0.1 µM. Also, the EC50 in assay [1] (setting [4]) is less than 1 µM.
As for `CNC(=O)c1cc(S(=O)(=O)NC(C)(C)C)cnc1NCc1ccc(-c2ccc3ncnc(N)c3c2)s1` [Example 8.6.18, 2-(((5-(4-aminoquinazolin-6-yl)thiophen-2-yl)methyl)amino)-5-(N-t-butylsulfamoyl)-N-methylnicotinamide], on PDK1 (setting [2]), the half-inhibitory concentration (IC50) was greater than 5 µM. In assay [1] (setting [3]), the EC50 lay within 1 to 10 µM.
At PDK1 (inhibition of PDK1 in vitro), `Nc1ncnc2[nH]cc(-c3ccc(CNc4ncc(C(F)(F)F)cc4C(=O)Nc4ccc(F)cc4)cc3)c12` [Example 321, 2-(4-(4-amino-7H-pyrrolo [2,3-d]pyrimidin-5-yl)benzylamino)-N-(4-fluorophenyl)-5-(trifluoromethyl)nicotinamide] gave an IC50 of less than 0.1 µM. In addition, in assay [1] (setting [4]), the EC50 is less than 1 µM.
On PDK1 (setting [2]), `COc1cc(NC(=O)c2cccnc2NCc2ccc(-c3ccc4ncnc(N)c4c3)s2)cc(C(F)(F)F)c1` [Example 3.52, 2-({[5-(4-aminoquinazolin-6-yl)thiophen-2-yl]methyl}amino)-N-[3-methoxy-5-(trifluoromethyl)phenyl]pyridine-3-carboxamide (TFA salt)] displayed an IC50 greater than 5 µM. The concentration for a half-maximal effect (EC50) in assay [1] (setting [3]) is greater than 10 µM.
Molecule `C[C@H](NC(=O)c1cc(C#N)cnc1N[C@H](C)c1ccc(-c2cnc3[nH]nc(N)c3n2)cc1)c1ccc(F)cc1` [Example 435, 2-{(R)-1-[4-(3-Amino-1H-pyrazolo[3,4-b]pyrazin-5-yl)-phenyl]-ethylamino}-5-cyano-N-[(S)-1-(4-fluoro-phenyl)-ethyl]-nicotinamide] gave an IC50 on PDK1 (inhibition of PDK1 in vitro) of less than 0.1 µM. In addition, the EC50 in assay [1] (setting [4]) was less than 1 µM.
The molecule `C[C@H](NC(=O)c1cc(C(F)(F)F)cnc1NCc1ccc(-c2ccc3ncc4ncn(C)c4c3c2)s1)c1ccc(F)c(F)c1` [Example 2.27, (S)-5-trifluoromethyl-N-(1-(3,4-difluorophenyl)ethyl)-2-(((5-(1-methyl-1H-imidazo[4,5-c]quinolin-8-yl)thiophen-2-yl)methyl)amino)nicotinamide] registered an IC50 against PDK1 (setting [2]) of less than 0.1 µM. Also, the EC50 in assay [1] (setting [3]) is less than 1 µM.
The corresponding values for `CN(C)S(=O)(=O)c1cnc(NCc2ccc(-c3ccc4ncnc(N)c4c3)s2)c(C(=O)NCc2ccc(F)c(F)c2)c1` [Example 8.7.5] are less than 0.1 µM and less than 1 µM.
The corresponding values for `Nc1ncnc2ccc(-c3ccc(CNc4nccnc4C(=O)NCc4ccc(F)cc4F)s3)cc12` [Example 3.75, 3-({[5-(4-aminoquinazolin-6-yl)thiophen-2-yl]methyl}amino)-N-(2,4-difluorobenzyl)pyrazine-2-carboxamide (TFA salt)] are less than 0.1 µM and greater than 10 µM.

In general, IC50 refers to the point on the concentration scale where inhibition reaches its midpoint. The term EC50 denotes the midpoint of the concentration-response curve.
